How the values were obtained:
Format in all cases: in vivo
Green Foxtail [1] = test: pre-emergence herbicide test; conditions: 0.25 lb/A; for inhibition at 280.212 g/ha: Setaria viridis, pre-emergence, read-out: % plant inhibition
In short: (§1)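 Read-out is percent inhibition at approximately 14 days after seeding and treating. Seeds sat on compacted topsoil beneath a cover layer containing compound in acetone or water, with greenhouse bottom-watering.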

Bedstraw Catchweed [2] = test: pre-emergence herbicide test; conditions: 0.25 lb/A; for inhibition at 280.212 g/ha: Galium aparine, pre-emergence, read-out: % plant inhibition
In short: as §1

Blackgrass [3] = test: pre-emergence herbicide test; conditions: 0.25 lb/A; for inhibition at 280.212 g/ha: Alopecurus myosuroides, pre-emergence, read-out: % plant inhibition
In short: as §1

Cocklebur [4] = test: pre-emergence herbicide test; conditions: 0.25 lb/A; for inhibition at 280.212 g/ha: Xanthium strumarium, pre-emergence, read-out: % plant inhibition
In short: as §1

Downy Brome [5] = test: pre-emergence herbicide test; conditions: 0.25 lb/A; for inhibition at 280.212 g/ha: Bromus tectorum, pre-emergence, read-out: % plant inhibition
In short: as §1

Rape [6] = test: pre-emergence herbicide test; conditions: 0.25 lb/A; for inhibition at 280.212 g/ha: pre-emergence, read-out: % plant inhibition
In short: as §1

Corn [7] = test: pre-emergence herbicide test; conditions: 0.25 lb/A; for inhibition at 280.212 g/ha: Zea mays, pre-emergence, read-out: % plant inhibition
In short: as §1

Birdseye Speedwell [8] = test: pre-emergence herbicide test; conditions: 0.25 lb/A; for inhibition at 280.212 g/ha: pre-emergence, read-out: % plant inhibition
In short: as §1

Soybean [9] = test: pre-emergence herbicide test; conditions: 0.25 lb/A; for inhibition at 280.212 g/ha: Glycine max, pre-emergence, read-out: % plant inhibition
In short: as §1

Wild Oats [10] = test: pre-emergence herbicide test; conditions: 0.25 lb/A; for inhibition at 280.212 g/ha: Avena fatua, pre-emergence, read-out: % plant inhibition
In short: as §1

Velvetleaf [11] = test: pre-emergence herbicide test; conditions: 0.25 lb/A; for inhibition at 280.212 g/ha: Abutilon theophrasti, pre-emergence, read-out: % plant inhibition
In short: as §1

Common Chickweed [12] = test: pre-emergence herbicide test; conditions: 0.25 lb/A; for inhibition at 280.212 g/ha: pre-emergence, read-out: % plant inhibition
In short: as §1

Giant Foxtail [13] = test: pre-emergence herbicide test; conditions: 0.25 lb/A; for inhibition at 280.212 g/ha: Setaria faberi, pre-emergence, read-out: % plant inhibition
In short: as §1

Morning Glory [14] = test: pre-emergence herbicide test; conditions: 0.25 lb/A; for inhibition at 280.212 g/ha: Ipomoea, pre-emergence, read-out: % plant inhibition
In short: as §1

Seedling Johnsongrass [15] = test: pre-emergence herbicide test; conditions: 0.25 lb/A; for inhibition at 280.212 g/ha: Sorghum halepense, pre-emergence, read-out: % plant inhibition
In short: as §1

Wheat [16] = test: pre-emergence herbicide test; conditions: 0.25 lb/A; for inhibition at 280.212 g/ha: Triticum aestivum, pre-emergence, read-out: % plant inhibition
In short: as §1

Barnyardgrass [17] = test: pre-emergence herbicide test; conditions: 0.25 lb/A; for inhibition at 280.212 g/ha: Echinochloa crus-galli, pre-emergence, read-out: % plant inhibition
In short: as §1

Green Foxtail [18] = test: post-emergence herbicide test; conditions: 0.25 lb/A; for inhibition at 280.212 g/ha: Setaria viridis, post-emergence, read-out: % plant inhibition
In short: (§2)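 Plants grown in greenhouse soil pans for two to three weeks were sprayed with compound in about 0.4% v/v emulsifier at 170.3 kPa and 1870 L/Ha, at the stated application rates. Activity was scored as percent inhibition of each species.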

Bedstraw Catchweed [19] = test: post-emergence herbicide test; conditions: 0.25 lb/A; for inhibition at 280.212 g/ha: Galium aparine, post-emergence, read-out: % plant inhibition
In short: as §2

Blackgrass [20] = test: post-emergence herbicide test; conditions: 0.25 lb/A; for inhibition at 280.212 g/ha: Alopecurus myosuroides, post-emergence, read-out: % plant inhibition
In short: as §2

Cocklebur [21] = test: post-emergence herbicide test; conditions: 0.25 lb/A; for inhibition at 280.212 g/ha: Xanthium strumarium, post-emergence, read-out: % plant inhibition
In short: as §2

Downy Brome [22] = test: post-emergence herbicide test; conditions: 0.25 lb/A; for inhibition at 280.212 g/ha: Bromus tectorum, post-emergence, read-out: % plant inhibition
In short: as §2

Rape [23] = test: post-emergence herbicide test; conditions: 0.25 lb/A; for inhibition at 280.212 g/ha: post-emergence, read-out: % plant inhibition
In short: as §2

Corn [24] = test: post-emergence herbicide test; conditions: 0.25 lb/A; for inhibition at 280.212 g/ha: Zea mays, post-emergence, read-out: % plant inhibition
In short: as §2

Birdseye Speedwell [25] = test: post-emergence herbicide test; conditions: 0.25 lb/A; for inhibition at 280.212 g/ha: post-emergence, read-out: % plant inhibition
In short: as §2

Soybean [26] = test: post-emergence herbicide test; conditions: 0.25 lb/A; for inhibition at 280.212 g/ha: Glycine max, post-emergence, read-out: % plant inhibition
In short: as §2

Wild Oats [27] = test: post-emergence herbicide test; conditions: 0.25 lb/A; for inhibition at 280.212 g/ha: Avena fatua, post-emergence, read-out: % plant inhibition
In short: as §2

Velvetleaf [28] = test: post-emergence herbicide test; conditions: 0.25 lb/A; for inhibition at 280.212 g/ha: Abutilon theophrasti, post-emergence, read-out: % plant inhibition
In short: as §2

Common Chickweed [29] = test: post-emergence herbicide test; conditions: 0.25 lb/A; for inhibition at 280.212 g/ha: post-emergence, read-out: % plant inhibition
In short: as §2

Giant Foxtail [30] = test: post-emergence herbicide test; conditions: 0.25 lb/A; for inhibition at 280.212 g/ha: Setaria faberi, post-emergence, read-out: % plant inhibition
In short: as §2

Morning Glory [31] = test: post-emergence herbicide test; conditions: 0.25 lb/A; for inhibition at 280.212 g/ha: Ipomoea, post-emergence, read-out: % plant inhibition
In short: as §2

Seedling Johnsongrass [32] = test: post-emergence herbicide test; conditions: 0.25 lb/A; for inhibition at 280.212 g/ha: Sorghum halepense, post-emergence, read-out: % plant inhibition
In short: as §2

Wheat [33] = test: post-emergence herbicide test; conditions: 0.25 lb/A; for inhibition at 280.212 g/ha: Triticum aestivum, post-emergence, read-out: % plant inhibition
In short: as §2

Barnyardgrass [34] = test: post-emergence herbicide test; conditions: 0.25 lb/A; for inhibition at 280.212 g/ha: Echinochloa crus-galli, post-emergence, read-out: % plant inhibition
In short: as §2

In the case of `CCC(C)OC(=O)c1cc(-c2nn(C)c(C(F)(F)F)c2C)c(F)cc1Cl` (stereo not drawn) [Compound 58], the inhibition at 280.212 g/ha (Green Foxtail [1]) is reported as 100%, the inhibition at 280.212 g/ha (Bedstraw Catchweed [2]) is reported as 95% and the inhibition at 280.212 g/ha (Blackgrass [3]) is reported as 95%. It also gave an inhibition at 280.212 g/ha (Cocklebur [4]) of 75%, an inhibition at 280.212 g/ha (Downy Brome [5]) of 100% and an inhibition at 280.212 g/ha (Rape [6]) of 50%. The inhibition at 280.212 g/ha (Corn [7]) was 20%, the inhibition at 280.212 g/ha (Birdseye Speedwell [8]) was 100% and the inhibition at 280.212 g/ha (Soybean [9]) was 25%. The inhibition at 280.212 g/ha (Wild Oats [10]) was 75%, the inhibition at 280.212 g/ha (Velvetleaf [11]) was 100% and the inhibition at 280.212 g/ha (Common Chickweed [12]) was 100%. It also gave an inhibition at 280.212 g/ha (Giant Foxtail [13]) of 100%, an inhibition at 280.212 g/ha (Morning Glory [14]) of 100% and an inhibition at 280.212 g/ha (Seedling Johnsongrass [15]) of 100%. It also gave an inhibition at 280.212 g/ha (Wheat [16]) of 5%, an inhibition at 280.212 g/ha (Barnyardgrass [17]) of 100% and an inhibition at 280.212 g/ha (Green Foxtail [18]) of 85%. The inhibition at 280.212 g/ha (Bedstraw Catchweed [19]) was 90%, the inhibition at 280.212 g/ha (Blackgrass [20]) was 80% and the inhibition at 280.212 g/ha (Cocklebur [21]) was 99%. The inhibition at 280.212 g/ha (Downy Brome [22]) was 85%, the inhibition at 280.212 g/ha (Rape [23]) was 65% and the inhibition at 280.212 g/ha (Corn [24]) was 20%. For the same compound, the inhibition at 280.212 g/ha (Birdseye Speedwell [25]) was 100%, the inhibition at 280.212 g/ha (Soybean [26]) was 85% and the inhibition at 280.212 g/ha (Wild Oats [27]) was 85%. It also gave an inhibition at 280.212 g/ha (Velvetleaf [28]) of 100%, an inhibition at 280.212 g/ha (Common Chickweed [29]) of 95% and an inhibition at 280.212 g/ha (Giant Foxtail [30]) of 95%. For the same compound, the inhibition at 280.212 g/ha (Morning Glory [31]) was 100%, the inhibition at 280.212 g/ha (Seedling Johnsongrass [32]) was 95% and the inhibition at 280.212 g/ha (Wheat [33]) was 18%. It also gave an inhibition at 280.212 g/ha (Barnyardgrass [34]) of 85%.

In the case of `Cc1c(-c2cc(C(=O)OCCC(C)C)c(Cl)cc2F)nn(C)c1C(F)(F)F` [Compound 55], the “% plant inhibition” value (Green Foxtail [1]) is reported as 100%, the “% plant inhibition” value (Bedstraw Catchweed [2]) is reported as 85% and the “% plant inhibition” value (Blackgrass [3]) is reported as 60%. For the same compound, the “% plant inhibition” value (Cocklebur [4]) was 30%, the “% plant inhibition” value (Downy Brome [5]) was 55% and the “% plant inhibition” value (Rape [6]) was 5%. For the same compound, the “% plant inhibition” value (Corn [7]) was 0%, the “% plant inhibition” value (Birdseye Speedwell [8]) was 100% and the “% plant inhibition” value (Soybean [9]) was 0%. The “% plant inhibition” value (Wild Oats [10]) was 35%, the “% plant inhibition” value (Velvetleaf [11]) was 85% and the “% plant inhibition” value (Common Chickweed [12]) was 75%. For the same compound, the “% plant inhibition” value (Giant Foxtail [13]) was 100%, the “% plant inhibition” value (Morning Glory [14]) was 10% and the “% plant inhibition” value (Seedling Johnsongrass [15]) was 95%. The “% plant inhibition” value (Wheat [16]) was 0%, the “% plant inhibition” value (Barnyardgrass [17]) was 30% and the “% plant inhibition” value (Green Foxtail [18]) was 65%. The “% plant inhibition” value (Bedstraw Catchweed [19]) was 75%, the “% plant inhibition” value (Blackgrass [20]) was 20% and the “% plant inhibition” value (Cocklebur [21]) was 90%. The “% plant inhibition” value (Downy Brome [22]) was 20%, the “% plant inhibition” value (Rape [23]) was 15% and the “% plant inhibition” value (Corn [24]) was 20%. For the same compound, the “% plant inhibition” value (Birdseye Speedwell [25]) was 95%, the “% plant inhibition” value (Soybean [26]) was 20% and the “% plant inhibition” value (Wild Oats [27]) was 30%. For the same compound, the “% plant inhibition” value (Velvetleaf [28]) was 99%, the “% plant inhibition” value (Common Chickweed [29]) was 70% and the “% plant inhibition” value (Giant Foxtail [30]) was 35%. The “% plant inhibition” value (Morning Glory [31]) was 85%, the “% plant inhibition” value (Seedling Johnsongrass [32]) was 70% and the “% plant inhibition” value (Wheat [33]) was 10%. For the same compound, the “% plant inhibition” value (Barnyardgrass [34]) was 45%.

Work on `CSCc1cc(-c2nn(C)c(C(F)(F)F)c2C)c(F)cc1Cl` [Compound 27] yielded an inhibition at 280.212 g/ha (Green Foxtail [1]) of 100%, an inhibition at 280.212 g/ha (Bedstraw Catchweed [2]) of 65% and an inhibition at 280.212 g/ha (Blackgrass [3]) of 35%. For the same compound, the inhibition at 280.212 g/ha (Cocklebur [4]) was 20%, the inhibition at 280.212 g/ha (Downy Brome [5]) was 5% and the inhibition at 280.212 g/ha (Rape [6]) was 10%. It also gave an inhibition at 280.212 g/ha (Corn [7]) of 5%, an inhibition at 280.212 g/ha (Birdseye Speedwell [8]) of 35% and an inhibition at 280.212 g/ha (Soybean [9]) of 3%. For the same compound, the inhibition at 280.212 g/ha (Wild Oats [10]) was 5%, the inhibition at 280.212 g/ha (Velvetleaf [11]) was 90% and the inhibition at 280.212 g/ha (Common Chickweed [12]) was 75%. It also gave an inhibition at 280.212 g/ha (Giant Foxtail [13]) of 50%, an inhibition at 280.212 g/ha (Morning Glory [14]) of 75% and an inhibition at 280.212 g/ha (Seedling Johnsongrass [15]) of 90%. For the same compound, the inhibition at 280.212 g/ha (Wheat [16]) was 0%, the inhibition at 280.212 g/ha (Barnyardgrass [17]) was 60% and the inhibition at 280.212 g/ha (Green Foxtail [18]) was 75%. It also gave an inhibition at 280.212 g/ha (Bedstraw Catchweed [19]) of 90%, an inhibition at 280.212 g/ha (Blackgrass [20]) of 30% and an inhibition at 280.212 g/ha (Cocklebur [21]) of 80%. For the same compound, the inhibition at 280.212 g/ha (Downy Brome [22]) was 40%, the inhibition at 280.212 g/ha (Rape [23]) was 50% and the inhibition at 280.212 g/ha (Corn [24]) was 65%. For the same compound, the inhibition at 280.212 g/ha (Birdseye Speedwell [25]) was 100%, the inhibition at 280.212 g/ha (Soybean [26]) was 80% and the inhibition at 280.212 g/ha (Wild Oats [27]) was 25%. For the same compound, the inhibition at 280.212 g/ha (Velvetleaf [28]) was 98%, the inhibition at 280.212 g/ha (Common Chickweed [29]) was 65% and the inhibition at 280.212 g/ha (Giant Foxtail [30]) was 35%. The inhibition at 280.212 g/ha (Morning Glory [31]) was 95%, the inhibition at 280.212 g/ha (Seedling Johnsongrass [32]) was 90% and the inhibition at 280.212 g/ha (Wheat [33]) was 13%. For the same compound, the inhibition at 280.212 g/ha (Barnyardgrass [34]) was 70%.
